The source made the active and inactive calls.
Key:
[1] = molecular target: T1, DNA dC->dU-editing enzyme APOBEC-3A (Homo sapiens, UniProt P31941); assay: Dose Response confirmation of small molecule APOBEC3A DNA Deaminase Inhibitors via a fluorescence-based single-stranded DNA deaminase assay. [Related pubchem assays (depositor defined):AID493011, AID493024]; type: functional
[2] = molecular target: T2, DNA dC->dU-editing enzyme APOBEC-3G (Homo sapiens, UniProt Q9HC16); type: functional
[3] = molecular target: Glyceraldehyde-3-phosphate dehydrogenase (Homo sapiens, UniProt P04406)
cells [4] = type: functional
[5] = Vero E6 cell cytotoxicity, dose response, cytotoxicity control for non-replicating M. tuberculosis project, secondary assay (AID 492998); type: functional, VeroE6; settings: Vero C1008
[6] = THP-1 cell cytotoxicity, dose response, cytotoxicity control for non-replicating M. tuberculosis project (AID 489025); type: functional
[7] = molecular target: T3, Acyl-homoserine lactone acylase PvdQ (Pseudomonas aeruginosa (strain LESB58), UniProt Q9I194); assay: P. aeruginosa PvdQ acylase inhibitors, dose response, biochemical, fluorescence, plate reader and imaging, cherry-picks (AID 493231)
T3 sequence (Q9I194 whole entry): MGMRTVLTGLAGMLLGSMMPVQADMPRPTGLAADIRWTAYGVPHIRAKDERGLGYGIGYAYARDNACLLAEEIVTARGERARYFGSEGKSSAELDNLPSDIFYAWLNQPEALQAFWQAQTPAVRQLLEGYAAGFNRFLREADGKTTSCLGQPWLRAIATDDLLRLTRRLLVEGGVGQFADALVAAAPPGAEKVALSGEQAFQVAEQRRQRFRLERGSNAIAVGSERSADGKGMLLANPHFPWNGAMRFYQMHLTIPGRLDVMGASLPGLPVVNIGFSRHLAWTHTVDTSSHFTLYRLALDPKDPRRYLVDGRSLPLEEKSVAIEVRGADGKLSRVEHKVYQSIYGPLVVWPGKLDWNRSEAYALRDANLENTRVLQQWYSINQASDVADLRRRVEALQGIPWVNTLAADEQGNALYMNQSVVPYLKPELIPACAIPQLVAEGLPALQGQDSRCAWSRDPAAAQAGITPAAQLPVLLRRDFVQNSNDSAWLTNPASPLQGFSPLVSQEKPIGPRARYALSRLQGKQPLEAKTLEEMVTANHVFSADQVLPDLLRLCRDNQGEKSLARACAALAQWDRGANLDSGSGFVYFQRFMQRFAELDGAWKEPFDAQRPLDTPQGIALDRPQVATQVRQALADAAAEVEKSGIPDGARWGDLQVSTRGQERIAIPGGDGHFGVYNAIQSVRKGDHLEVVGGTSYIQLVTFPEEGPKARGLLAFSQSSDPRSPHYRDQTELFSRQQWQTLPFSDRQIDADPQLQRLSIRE

[8] = molecular target: T4, Voltage-gated N-type calcium channel alpha-1B subunit/Amyloid beta A4 precursor protein-binding family A member 1 (Homo sapiens, UniProt Q00975+Q02410); assay: disruptors of Mint-PDZ/N-type channel peptide interaction – biochemical, HTRF, SAR follow-up (AID 2489); type: functional
[9] = molecular target: T4, Voltage-gated N-type calcium channel alpha-1B subunit/Amyloid beta A4 precursor protein-binding family A member 1; assay: disruptors of Mint-PDZ/N-type channel peptide interaction – biochemical, HTRF, set 2, SAR follow-up (AID 434980); type: functional
[10] = molecular target: T2, DNA dC->dU-editing enzyme APOBEC-3G; assay: Dose Response confirmation of small molecule APOBEC3G DNA Deaminase Inhibitors via a fluorescence-based single-stranded DNA deaminase assay. [Related pubchem assays (depositor defined):AID493012, AID493028]; type: functional
[11] = molecular target: Glucose-6-phosphate 1-dehydrogenase (Homo sapiens, UniProt P11413); assay: human G6PD enzyme inhibitors, dose response, selectivity assay for P. falciparum G6PD inhibitor project, biochemical, fluorescence (AID 504792); type: functional
[12] = molecular target: T1, DNA dC->dU-editing enzyme APOBEC-3A; assay: APOBEC3A DNA deaminase inhibitors, dose response, biochemical (AID 504722); type: functional
[13] = molecular target: Peroxisome proliferator-activated receptor gamma/Nuclear receptor coactivator 1 (Homo sapiens, UniProt P37231); type: functional;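 note: agonist potency as compounds enhance coactivator SRC-1 recruitment to PPARgamma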
[14] = molecular target: T5, Heat shock factor protein 1 (Mus musculus, UniProt P38532); assay: HSF1 potentiators in luciferase reporter cells, confirmation, cell-based, NIH3T3, luminescence, dose retest (AID 435004); type: functional;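 note: stress induced by proteasome inhibitor MG132 added 30 min after compound; luciferase reporter driven by HSF1 response element in NIH3T3 cells; actives raise luminescence as potentiators of the MG132 stress response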
T5 sequence (P38532 whole entry): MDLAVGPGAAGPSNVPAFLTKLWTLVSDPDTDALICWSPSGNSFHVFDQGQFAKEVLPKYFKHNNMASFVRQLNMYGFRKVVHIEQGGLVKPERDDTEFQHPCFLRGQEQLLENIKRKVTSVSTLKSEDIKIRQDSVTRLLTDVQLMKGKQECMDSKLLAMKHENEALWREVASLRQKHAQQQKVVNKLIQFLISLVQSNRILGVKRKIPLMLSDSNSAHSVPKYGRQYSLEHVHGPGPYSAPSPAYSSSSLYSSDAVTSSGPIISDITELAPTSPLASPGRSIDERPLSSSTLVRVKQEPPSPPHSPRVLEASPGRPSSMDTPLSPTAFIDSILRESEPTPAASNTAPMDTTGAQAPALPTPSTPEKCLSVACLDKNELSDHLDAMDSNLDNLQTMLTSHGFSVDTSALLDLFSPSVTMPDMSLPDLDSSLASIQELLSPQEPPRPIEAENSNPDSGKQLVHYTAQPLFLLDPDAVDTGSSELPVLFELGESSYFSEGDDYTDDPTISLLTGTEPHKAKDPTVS

[15] = molecular target: Peroxisome proliferator-activated receptor gamma/Nuclear receptor coactivator 3 (Homo sapiens, UniProt P37231); type: functional;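 note: agonist potency for raising coactivator recruitment to the receptor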
[16] = molecular target: Peroxisome proliferator-activated receptor gamma/Nuclear receptor coactivator 2 (Homo sapiens, UniProt P37231); type: functional;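 note: agonist potency for raising coactivator recruitment to the receptor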
[17] = THP-1 cell cytotoxicity, dose response, cytotoxicity control for Vif-APOBEC3G degradation inhibitor project, THP-1 cells (AID 1117359); type: functional; settings: Human immunodeficiency virus 1, THP-1
Leucine aminopeptidase = molecular target: T6, Leucine aminopeptidase (Plasmodium falciparum 3D7, UniProt Q8IL11); assay: P. falciparum M17LAP inhibitors, primary screen, biochemical, fluorogenic H-Leu-NHMec substrate, 1536-well (AID 1619); type: functional
T6 sequence (Q8IL11 whole entry): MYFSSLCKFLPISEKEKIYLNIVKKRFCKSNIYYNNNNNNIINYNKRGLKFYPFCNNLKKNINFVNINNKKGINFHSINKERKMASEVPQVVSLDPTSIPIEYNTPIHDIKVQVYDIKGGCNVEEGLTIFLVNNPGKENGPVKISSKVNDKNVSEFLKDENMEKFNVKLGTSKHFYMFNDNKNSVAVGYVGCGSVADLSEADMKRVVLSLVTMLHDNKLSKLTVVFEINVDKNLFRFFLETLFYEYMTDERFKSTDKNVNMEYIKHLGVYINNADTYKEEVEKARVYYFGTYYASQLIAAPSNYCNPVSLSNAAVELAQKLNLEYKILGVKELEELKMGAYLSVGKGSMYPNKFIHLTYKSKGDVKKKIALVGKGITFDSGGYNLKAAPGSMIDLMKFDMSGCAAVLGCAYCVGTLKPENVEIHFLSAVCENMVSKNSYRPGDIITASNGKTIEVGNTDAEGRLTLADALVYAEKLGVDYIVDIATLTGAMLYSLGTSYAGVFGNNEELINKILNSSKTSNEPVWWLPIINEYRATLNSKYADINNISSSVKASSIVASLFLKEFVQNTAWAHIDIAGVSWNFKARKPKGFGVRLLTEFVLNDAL

[18] = enhancers of respiration in Yfh1-depleted yeast, dose response, Friedreich's ataxia, plus single-dose screen (AID 1465); type: functional;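 note: yeast depleted of Yfh1p frataxin homolog grown on glycerol needing respiration; WST-1 tetrazolium dye reduction as measure of cellular dehydrogenase metabolic activity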
[19] = molecular target: T4, Voltage-gated N-type calcium channel alpha-1B subunit/Amyloid beta A4 precursor protein-binding family A member 1; type: protein assay
[20] = molecular target: T4, Voltage-gated N-type calcium channel alpha-1B subunit/Amyloid beta A4 precursor protein-binding family A member 1; type: protein assay; remark: listed apart in the source
[21] = molecular target: Neurotensin receptor type 1 (Homo sapiens, UniProt P30989); type: functional;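 note: Image-based confirmatory dose-response assay measuring agonist activity at NTR1; NTR1-expressing U2OS osteosarcoma cells imaged for beta-arrestin GFP spot formation; agonist potency where compounds increase beta-arrestin recruitment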
cells [22] = assay: cells
[23] = molecular target: T7, C-C chemokine receptor type 6 (Homo sapiens, UniProt P51684); assay: CCR6 receptor antagonists, dose response, cell-based, luminescent beta-arrestin readout (AID 504728); type: functional
T7 sequence (P51684 whole entry): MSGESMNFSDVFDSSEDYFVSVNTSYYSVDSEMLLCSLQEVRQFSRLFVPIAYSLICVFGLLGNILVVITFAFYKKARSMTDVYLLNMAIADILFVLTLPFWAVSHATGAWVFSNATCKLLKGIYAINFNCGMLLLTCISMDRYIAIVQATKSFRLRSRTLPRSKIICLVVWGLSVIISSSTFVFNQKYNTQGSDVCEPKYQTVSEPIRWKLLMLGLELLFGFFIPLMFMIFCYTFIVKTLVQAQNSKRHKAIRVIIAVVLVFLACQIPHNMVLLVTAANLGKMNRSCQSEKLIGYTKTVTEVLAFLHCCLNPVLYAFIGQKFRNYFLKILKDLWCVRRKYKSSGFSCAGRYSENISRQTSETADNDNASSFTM

Beta-galactosidase = Beta-galactosidase (Escherichia coli, UniProt Q8VNN2); assay: beta-galactosidase enzyme inhibitors and activators, dose response, artefact control for CCR6 antagonist project, biochemical, E. coli enzyme, set 3 (AID 504712); type: functional
Hexokinase = molecular target: T8, Hexokinase (Trypanosoma brucei, UniProt Q38C41); assay: Confirmation assay for inhibitors of Trypanosoma brucei hexokinase 1-Analogue-first series. [Related pubchem assays (depositor defined):AID1430, AID1632, AID2516, AID2560, AID2579, AID2600, AID449725, AID492951]; type: functional
T8 sequence (Q38C41 whole entry): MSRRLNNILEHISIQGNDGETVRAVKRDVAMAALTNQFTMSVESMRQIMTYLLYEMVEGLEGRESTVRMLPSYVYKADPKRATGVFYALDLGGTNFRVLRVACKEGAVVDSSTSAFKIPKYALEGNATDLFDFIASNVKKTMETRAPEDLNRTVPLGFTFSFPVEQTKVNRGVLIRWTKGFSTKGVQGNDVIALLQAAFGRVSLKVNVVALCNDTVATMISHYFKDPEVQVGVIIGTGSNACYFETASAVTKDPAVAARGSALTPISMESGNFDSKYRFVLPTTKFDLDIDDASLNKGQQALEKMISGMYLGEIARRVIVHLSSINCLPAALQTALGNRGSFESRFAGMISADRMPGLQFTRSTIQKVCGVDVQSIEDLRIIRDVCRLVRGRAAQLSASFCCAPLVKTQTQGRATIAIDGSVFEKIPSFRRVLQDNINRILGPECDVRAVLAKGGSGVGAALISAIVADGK

T4 sequence (Q00975 whole entry): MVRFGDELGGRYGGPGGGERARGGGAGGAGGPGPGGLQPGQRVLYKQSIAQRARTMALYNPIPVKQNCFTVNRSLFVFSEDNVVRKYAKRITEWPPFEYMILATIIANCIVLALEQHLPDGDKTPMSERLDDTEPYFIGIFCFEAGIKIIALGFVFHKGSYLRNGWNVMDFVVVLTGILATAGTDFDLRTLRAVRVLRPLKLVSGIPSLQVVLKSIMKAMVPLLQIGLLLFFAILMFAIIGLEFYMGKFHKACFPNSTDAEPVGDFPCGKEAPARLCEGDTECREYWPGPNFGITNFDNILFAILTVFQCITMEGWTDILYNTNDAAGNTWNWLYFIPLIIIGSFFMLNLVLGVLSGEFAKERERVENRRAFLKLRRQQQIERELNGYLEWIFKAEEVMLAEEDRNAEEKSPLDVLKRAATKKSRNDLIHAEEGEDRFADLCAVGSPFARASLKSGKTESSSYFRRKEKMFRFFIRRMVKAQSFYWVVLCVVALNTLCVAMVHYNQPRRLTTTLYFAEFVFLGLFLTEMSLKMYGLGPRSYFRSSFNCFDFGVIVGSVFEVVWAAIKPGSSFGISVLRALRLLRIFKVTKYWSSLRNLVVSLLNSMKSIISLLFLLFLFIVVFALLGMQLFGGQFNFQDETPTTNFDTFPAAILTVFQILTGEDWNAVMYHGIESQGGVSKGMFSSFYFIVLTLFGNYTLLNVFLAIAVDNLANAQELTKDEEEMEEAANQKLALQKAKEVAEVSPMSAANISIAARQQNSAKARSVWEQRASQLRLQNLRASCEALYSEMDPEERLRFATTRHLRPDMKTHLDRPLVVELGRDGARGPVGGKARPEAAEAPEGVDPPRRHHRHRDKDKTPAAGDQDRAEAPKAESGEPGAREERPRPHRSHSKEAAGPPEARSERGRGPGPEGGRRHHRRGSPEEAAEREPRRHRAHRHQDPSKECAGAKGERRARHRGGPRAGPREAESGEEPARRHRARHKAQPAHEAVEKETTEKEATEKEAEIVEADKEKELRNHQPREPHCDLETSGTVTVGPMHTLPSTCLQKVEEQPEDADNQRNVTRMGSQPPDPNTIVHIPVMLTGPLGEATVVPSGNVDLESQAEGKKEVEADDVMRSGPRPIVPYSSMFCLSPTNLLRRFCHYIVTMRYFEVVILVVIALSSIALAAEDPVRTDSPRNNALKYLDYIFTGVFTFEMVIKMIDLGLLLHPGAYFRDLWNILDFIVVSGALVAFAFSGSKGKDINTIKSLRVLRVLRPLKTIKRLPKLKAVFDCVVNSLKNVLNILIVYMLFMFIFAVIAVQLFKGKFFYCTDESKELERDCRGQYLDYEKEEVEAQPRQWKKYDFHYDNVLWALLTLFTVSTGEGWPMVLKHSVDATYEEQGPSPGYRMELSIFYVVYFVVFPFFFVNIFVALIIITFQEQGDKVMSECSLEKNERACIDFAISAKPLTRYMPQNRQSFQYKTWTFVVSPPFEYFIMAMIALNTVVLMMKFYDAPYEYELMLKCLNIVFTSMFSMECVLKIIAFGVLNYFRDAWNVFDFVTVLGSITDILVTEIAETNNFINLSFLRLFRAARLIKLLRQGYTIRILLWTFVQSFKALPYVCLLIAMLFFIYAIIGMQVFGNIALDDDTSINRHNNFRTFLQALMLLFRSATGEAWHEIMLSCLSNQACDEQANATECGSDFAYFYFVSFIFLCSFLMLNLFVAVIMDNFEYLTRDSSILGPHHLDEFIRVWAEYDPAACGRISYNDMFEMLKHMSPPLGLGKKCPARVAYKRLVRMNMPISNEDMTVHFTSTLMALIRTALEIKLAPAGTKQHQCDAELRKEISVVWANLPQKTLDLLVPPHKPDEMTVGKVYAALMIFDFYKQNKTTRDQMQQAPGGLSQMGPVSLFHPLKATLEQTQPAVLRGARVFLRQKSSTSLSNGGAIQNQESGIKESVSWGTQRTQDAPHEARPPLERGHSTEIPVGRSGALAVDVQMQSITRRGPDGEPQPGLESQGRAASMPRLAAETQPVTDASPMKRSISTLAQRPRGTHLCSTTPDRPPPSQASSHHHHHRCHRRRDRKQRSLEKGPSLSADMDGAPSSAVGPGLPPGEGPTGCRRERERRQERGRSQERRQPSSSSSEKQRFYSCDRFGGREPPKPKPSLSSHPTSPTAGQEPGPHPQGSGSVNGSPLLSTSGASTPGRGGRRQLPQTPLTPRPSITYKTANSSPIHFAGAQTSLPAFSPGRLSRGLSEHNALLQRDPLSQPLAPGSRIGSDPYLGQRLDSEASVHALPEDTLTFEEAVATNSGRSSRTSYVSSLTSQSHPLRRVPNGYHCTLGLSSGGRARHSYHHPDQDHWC
T4 sequence (Q02410 whole entry): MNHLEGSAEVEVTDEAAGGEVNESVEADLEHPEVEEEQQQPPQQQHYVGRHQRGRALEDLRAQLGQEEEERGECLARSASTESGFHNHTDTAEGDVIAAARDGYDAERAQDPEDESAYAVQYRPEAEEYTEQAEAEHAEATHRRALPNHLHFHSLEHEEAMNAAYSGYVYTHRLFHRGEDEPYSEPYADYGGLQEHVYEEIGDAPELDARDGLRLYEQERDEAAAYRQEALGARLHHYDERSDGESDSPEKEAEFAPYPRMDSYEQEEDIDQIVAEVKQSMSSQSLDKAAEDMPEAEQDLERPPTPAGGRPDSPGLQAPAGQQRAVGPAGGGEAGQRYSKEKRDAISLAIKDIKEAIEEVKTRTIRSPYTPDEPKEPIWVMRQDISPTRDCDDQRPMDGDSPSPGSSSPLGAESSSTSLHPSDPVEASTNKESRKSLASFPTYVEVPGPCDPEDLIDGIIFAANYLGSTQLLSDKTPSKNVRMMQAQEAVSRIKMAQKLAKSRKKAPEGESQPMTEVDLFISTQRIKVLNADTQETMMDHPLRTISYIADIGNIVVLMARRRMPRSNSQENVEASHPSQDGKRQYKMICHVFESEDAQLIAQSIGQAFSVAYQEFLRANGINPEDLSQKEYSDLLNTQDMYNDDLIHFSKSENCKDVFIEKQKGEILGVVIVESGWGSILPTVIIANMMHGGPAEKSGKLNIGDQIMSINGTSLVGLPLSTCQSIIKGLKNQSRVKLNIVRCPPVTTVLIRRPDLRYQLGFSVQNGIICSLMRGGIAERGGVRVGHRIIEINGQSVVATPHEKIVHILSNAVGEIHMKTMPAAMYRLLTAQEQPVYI
T1 sequence (P31941 whole entry): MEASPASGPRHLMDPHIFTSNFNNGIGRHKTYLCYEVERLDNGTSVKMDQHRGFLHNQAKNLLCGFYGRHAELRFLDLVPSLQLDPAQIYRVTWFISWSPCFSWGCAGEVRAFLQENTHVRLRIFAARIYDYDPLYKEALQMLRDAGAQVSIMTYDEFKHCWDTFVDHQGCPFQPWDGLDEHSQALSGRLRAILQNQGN
T2 sequence (Q9HC16 whole entry): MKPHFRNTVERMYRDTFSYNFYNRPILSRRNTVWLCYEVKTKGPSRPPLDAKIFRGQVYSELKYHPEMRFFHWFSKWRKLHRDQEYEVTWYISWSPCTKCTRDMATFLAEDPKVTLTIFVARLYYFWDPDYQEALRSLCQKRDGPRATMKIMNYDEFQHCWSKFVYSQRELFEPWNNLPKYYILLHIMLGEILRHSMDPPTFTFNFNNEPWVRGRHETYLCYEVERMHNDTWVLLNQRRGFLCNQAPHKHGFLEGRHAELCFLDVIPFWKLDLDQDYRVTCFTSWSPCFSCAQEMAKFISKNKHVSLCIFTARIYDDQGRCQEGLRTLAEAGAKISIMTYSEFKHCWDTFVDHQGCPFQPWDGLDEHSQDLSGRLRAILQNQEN
Sequence of Glucose-6-phosphate 1-dehydrogenase (P11413 whole entry): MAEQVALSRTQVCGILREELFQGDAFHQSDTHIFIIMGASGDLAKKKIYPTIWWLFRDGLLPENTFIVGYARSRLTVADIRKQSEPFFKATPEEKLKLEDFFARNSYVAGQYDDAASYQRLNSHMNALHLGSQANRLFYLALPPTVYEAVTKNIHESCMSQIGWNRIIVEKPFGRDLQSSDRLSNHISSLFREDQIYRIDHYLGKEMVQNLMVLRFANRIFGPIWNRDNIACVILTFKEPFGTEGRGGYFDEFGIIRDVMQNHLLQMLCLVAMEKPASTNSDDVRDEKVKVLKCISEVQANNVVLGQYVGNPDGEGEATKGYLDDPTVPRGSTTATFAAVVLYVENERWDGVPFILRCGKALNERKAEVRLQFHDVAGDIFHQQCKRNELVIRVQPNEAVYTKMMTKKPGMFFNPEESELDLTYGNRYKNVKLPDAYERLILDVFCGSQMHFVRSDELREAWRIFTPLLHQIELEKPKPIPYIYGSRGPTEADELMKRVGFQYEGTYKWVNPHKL
Sequence of Glyceraldehyde-3-phosphate dehydrogenase (P04406 whole entry): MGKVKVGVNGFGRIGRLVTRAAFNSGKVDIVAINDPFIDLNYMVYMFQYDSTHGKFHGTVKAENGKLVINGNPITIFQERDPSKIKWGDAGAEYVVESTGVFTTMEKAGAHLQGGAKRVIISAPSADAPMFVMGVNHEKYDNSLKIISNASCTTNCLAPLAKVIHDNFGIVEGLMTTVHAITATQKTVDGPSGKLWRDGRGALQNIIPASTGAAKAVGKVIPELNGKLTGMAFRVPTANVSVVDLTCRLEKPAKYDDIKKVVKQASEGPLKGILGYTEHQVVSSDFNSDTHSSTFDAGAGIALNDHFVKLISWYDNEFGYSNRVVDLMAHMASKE
Sequence of Neurotensin receptor type 1 (P30989 whole entry): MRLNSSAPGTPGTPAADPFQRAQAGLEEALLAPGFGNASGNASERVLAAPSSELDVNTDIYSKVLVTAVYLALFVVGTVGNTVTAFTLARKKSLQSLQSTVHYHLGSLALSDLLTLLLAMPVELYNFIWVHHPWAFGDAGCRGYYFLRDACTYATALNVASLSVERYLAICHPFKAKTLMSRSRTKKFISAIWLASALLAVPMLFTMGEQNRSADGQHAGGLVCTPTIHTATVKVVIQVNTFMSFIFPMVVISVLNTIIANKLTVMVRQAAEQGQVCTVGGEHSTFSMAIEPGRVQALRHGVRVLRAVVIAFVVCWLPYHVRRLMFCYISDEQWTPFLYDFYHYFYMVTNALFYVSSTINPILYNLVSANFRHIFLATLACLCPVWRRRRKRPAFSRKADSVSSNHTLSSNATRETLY

CCOc1ccc(CN2C(=O)c3ccccc3C2=O)cc1C(=O)NC1CC(C)(C)NC(C)(C)C1
IC50 [1]: 2.87 µM (active)
IC50 [2]: 3.18 µM (active)

CCN1CCN(C2=C(Cl)C(=O)N(c3cccc(C(F)(F)F)c3)C2=O)CC1
IC50 [3]: > 50 µM (inconclusive)

CC(C)CCCN1C(=O)NC(=O)/C(=C\c2ccc[nH]2)C1=O
IC50 (cells [4]): 1.22 µM (active)
CC50 [5]: > 20 µM (active)
CC50 [6]: > 40 µM (active)

Cc1cc(C)cc(N2CC(c3nc4ccccc4n3C)CC2=O)c1 (stereo not drawn)
IC50 [1]: 9.16 µM (active)
IC50 [2]: 16.1 µM (active)

N#CC(Sc1ccccn1)c1ccc(Cl)cc1 (stereo not drawn)
AC50 [7]: 7.09 µM (active)

CC(=O)Oc1ccc(N2C(=O)C3C4C=CC(O4)C3C2=O)cc1 (stereo not drawn)
IC50 [8]: > 56.8 µM (inactive)
IC50 [9]: 18.8 µM (active)

O=C(NCCCN1CCOCC1)c1sc2cc([N+](=O)[O-])ccc2c1Cl
IC50 [10]: 6.34 µM (active)
IC50 [11]: > 80 µM (inactive)
IC50 [12]: > 100 µM (inactive)

N#Cc1ccc(-c2ccc(Cl)cc2)nc1Oc1ccc(F)cc1
EC50 [13]: > 79.4 µM (not active)
EC50 [14]: > 260 µM (inconclusive)
EC50 [15]: > 79.4 µM (not active)
EC50 [16]: > 79.4 µM (not active)

Oc1ccc(NCc2ccccc2OCc2ccccc2)cc1
EC50 [13]: > 79.4 µM (not active)
CC50 [17]: 22.7 µM (active)
EC50 [15]: > 79.4 µM (not active)
EC50 [16]: > 79.4 µM (not active)
IC50 [11]: > 80 µM (inactive)

CCN1CCN(c2ccc(NC(=O)c3ccc4c(c3)OCCO4)cc2C)CC1
IC50 [1]: 4.49 µM (active)
IC50 [2]: 4.12 µM (active)

COCCNC(=O)/C(C#N)=C/c1ccc(N2CCOCC2)o1
IC50 (Leucine aminopeptidase): 113 µM (active)
EC50 [18]: > 100 µM (active)

CC(C)NC(=O)COC(=O)/C=C/c1ccco1
IC50 [19]: 9.71 µM (active)
IC50 [20]: > 50 µM (inactive)

O=C(/C=C/c1cccnc1)c1ccc(F)c(F)c1
EC50 [21]: 11.4 µM (active)

Cc1ccc(-n2c(=O)c3sccc3n(Cc3cc(=O)n4ccccc4n3)c2=O)cc1
IC50 (cells [22]): 26.4 µM (active)

COc1ccc(NC2c3ncccc3C(=O)N2Cc2cccs2)cc1 (stereo not drawn)
IC50 (cells [22]): 45.6 µM (active)

CC1(C)C2CC[C@]3(C)C(CC=C4[C@@H]5C[C@@](C)(CO)[C@@H]6C[C@@]5(CC[C@]43C)C(=O)O6)[C@@]2(C)CC[C@@H]1O (stereo partly drawn)
IC50 [23]: > 66.6 µM (inactive)
IC50 (Beta-galactosidase): > 66.6 µM (inactive)

O=C(Nc1cc(Cl)ccc1C(=O)O)c1ccc(C2CC2)cc1
IC50 (Hexokinase): 5.77 µM (active)

COc1ccc2c(=O)n(-c3ccccc3)sc2c1
IC50 (Hexokinase): 3 µM (active)

Cc1cccc(N2C(=O)C3C(C2=O)C2(C)C=CC3(C)O2)c1 (stereo not drawn)
IC50 [8]: 27.6 µM (active)
IC50 [9]: 8.93 µM (active)

CCCCCCCC(=O)Nc1cc(Cl)ccc1C(=O)O
IC50 (Hexokinase): > 25 µM (inactive)

Cc1ccsc1/C=N/n1c(S)nnc1-c1ccccn1
IC50 [10]: 4.89 µM (active)
IC50 [12]: > 100 µM (inactive)

COc1ccc(/N=C(\C)C2=C(O)SCC2=O)cc1
AC50 [7]: 12.4 µM (active)

COc1cc(C)c(C)cc1S(=O)(=O)Nc1cccnc1
IC50 [3]: > 100 µM (not active)

Reference: ChEMBL document CHEMBL1201862, “PubChem BioAssay data set” (2004)
